Patent publication US8952149B2, “Tricyclic tetrahydroquinoline antibacterial agents” (Zoetis LLC, priority 2012, dated 2015)
Values after ≈ are worked out from the molar mass of the structure shown.

Legend:
[1] = system: S. pyogenes 02C0203; assay: In vitro MIC testing by microbroth dilution; assay type: cell-based, Streptococcus pyogenes; conditions: for antibacterial activity (in words): S. pyogenes 02C0203; for MIC: Streptococcus pyogenes, 02C0203, microbroth dilution, 35° C., 16 to 24 hours
Procedure: Except for clarifying or modifying statements, MIC testing followed procedures recommended by the NCCLS^1-2 or followed the descriptions cited below.
At least the following organisms are included in the screen: S. pyogenes 02C0203. Incubations were at 35° C. Stock bacterial cultures were maintained on Tryptic Soy Agar containing 5% Sheep Blood (BD, Becton Dickinson Microbiology Systems, Cockeysville, Md.), anaerobes were maintained on Anaerobic Blood Agar plates—CDC Formulation (BD), and fastidious organisms were maintained on Chocolate Agar II Plates (BD). Specific conditions of handling are listed below.
Frozen stock cultures were used as the initial source of organisms for performing microbroth dilution MIC testing. Stock cultures were passed on their standard growth medium for at least 1 growth cycle (18 to 24 hours) prior to their use.
Most bacteria, unless otherwise noted, were prepared directly from agar plates in 10 mL aliquots of the appropriate broth medium. Bacterial cultures were adjusted to the opacity of a 0.5 McFarland Standard (optical density value of 0.28-0.33 on a Perkin-Elmer Lambda EZ150 Spectrophotometer Wellesley, Mass., set at a wavelength of 600 nm). The adjusted cultures were diluted 400 fold (0.25 mL inoculum+100 mL broth) in growth media to produce a starting suspension of approximately 5×10^5 colony forming units (CFU)/mL. Unless otherwise noted, bacterial strains were tested in cation adjusted Mueller Hinton Broth (CAMHB).
Compounds were solubilized in DMSO. Drug stock solutions were prepared on the day of testing. Drugs were weight corrected for assay content where necessary.
Microbroth dilution stock plates were prepared in two dilution series, 64 to 0.06 μg drug/mL and 0.25 to 0.00025 μg drug/mL. For the high concentration series, 200 μL of stock solution ([…]) was added to duplicate rows of a 96-well microtiter plate. This was used as the first well in the dilution series. Serial two-fold decremental dilutions were made using a BioMek FX robot (Beckman Coulter Inc., Fullerton, Calif.) with 10 of the remaining 11 wells, each of which contained 100 μL of the appropriate solvent/diluent. Row 12 contained solvent/diluent only and served as the control. For tube one of the low concentration series, 200 µL of an 8 μg/mL stock was added to duplicate rows of a 96-well plate. Serial two-fold dilutions were made as described above.
Daughter plates were spotted (3.2 μL/well) from the stock plates listed above using the BioMek FX robot and were either used immediately or frozen at −70° C. until use.
Aerobic organisms were inoculated (100 μL volumes) into the thawed plates using the BioMek FX robot. The inoculated plates were placed in stacks of no more than 5 and covered with an empty plate. These plates were incubated 16 to 24 hours in ambient atmosphere according to CLSI guidelines^2.
After inoculation and incubation, the degree of bacterial growth was estimated visually with the aid of a Test Reading Mirror (Dynex Technologies 220 16) in a darkened room with a single light shining directly through the top of the microbroth tray. The MIC was the lowest concentration of drug that prevented macroscopically visible growth under the conditions of the test. Testing was performed in duplicate. When the MIC values in duplicate tests varied by 1 well (2-fold), the […] values were reported. If the MICs varied by 2 dilutions, the middle value was reported. […]

[2] = Plasma concentrations in infected mice after an oral dose (LC/MS/MS); assay type: in vivo; conditions: for concentration at 0.5 h / concentration at 1 h / concentration at 2 h / concentration at 4 h / concentration at 8 h / concentration at 24 h: CF-1, mouse, plasma, infected mice (n = 3), oral 100 mg/kg; for oral exposure (in words): mice infected with S. pyogenes 02C0203, 100 mg/kg
Procedure: (§1) In this example, the plasma concentrations of selected compounds were determined in mice that were infected with S. pyogenes 02C0203 at an oral dose of 100 mg/kg^4. Plasma samples were assayed for selected compounds using LC/MS/MS with multiple reaction monitoring. Free fractions were measured using equilibrium dialysis^5.
(§2) Separate groups of immunosuppressed mice were infected as above and orally dosed 2 hours post-infection with 100 mg/kg of the selected compounds. Thigh tissue samples (10% in PBS) and plasma were collected at 0.5, 1, 2, 4, 8 and 24 hours post-dose (n=3) for quantitation of drug levels. Bacterial burden was quantitated in the thigh tissue samples from treated mice and from infected, untreated mice at each timepoint.

[3] = system: S. pyogenes 02C0203; assay: AUC/MIC ratios required for efficacy (PK-PD); assay type: in vivo; conditions: free AUC required for efficacy against S. pyogenes 02C0203 in mice
Procedure: as §1, §2

[4] = system: S. pyogenes 02C0203; assay: Neutropenic soft tissue (thigh abscess) infection model; assay type: in vivo, CF-1 female mice; conditions: thigh tissue 24 hours post-dose
Procedure: In this example, the in vivo antibacterial efficacy of selected compounds was determined in a neutropenic soft tissue infection model in CF-1 female mice challenged with Streptococcus pyogenes 02C0203. With the exception of modifications discussed here, the murine soft tissue infection model was previously described by Craig et al. (6, 7, 8).
CF-1 female mice were immunosuppressed with oral doses of cyclophosphamide in sterile water on Day-4 (150 mg/kg) and Day-1 (100 mg/kg). Mice were infected intramuscularly (thigh muscle) with 7×10^5 cfu of S. pyogenes 02C0203 in 0.1 ml brain heart infusion broth on Day 0. Two hours post-infection, mice received a single oral dose of selected compounds. The compounds were administered orally from a spray dried dispersion (SDD) in 0.5% (wt/v) methylcellulose (MC), 0.5% (wt/v) hydroxypropyl methylcellulose acetate succinate medium, fine powder (HPMCAS-MF) in 20 mM Tris buffer (pH 7.4). Thigh tissue was collected 24 hours post-dose. Serial ten-fold dilutions of tissue homogenates prepared in sterile phosphate buffered saline were plated on 5% sheep blood agar plates for enumeration of bacterial burden.
as §2

With `CCc1coc(-c2cc3c(c(F)c2F)N2C[C@H](C)O[C@H](C)[C@H]2C2(C3)C(=O)NC(=O)NC2=O)n1` (racemic) [Example 9, (2S,4R,4aR)-8-(4-ethyloxazol-2-yl)-9,10-difluoro-2,4-dimethyl-2,4,4a,6-tetrahydro-1H,1′H-spiro[[1,4]oxazino[4,3-a]quinoline-5,5′-pyrimidine]-2′,4′,6′(3′H)-trione] the “antibacterial activity (in words)” value [1] was “antibacterial activity”, the MIC [1] was 1 µg/mL (≈ 2.17 µM) and the concentration at 0.5 h [2] was 19400 ng/mL. For the same compound, the concentration at 1 h [2] was 19000 ng/mL, the concentration at 2 h [2] was 23000 ng/mL and the concentration at 4 h [2] was 22900 ng/mL. For the same compound, the concentration at 8 h [2] was 18100 ng/mL, the concentration at 24 h [2] was 2180 ng/mL and the “oral exposure (in words)” value [2] was “demonstrated oral exposure”. For the same compound, the “Target fAUC” value [3] was 4000 ng·h/mL.
For `Cc1coc(-c2cc(F)c3c(c2)CC2(C(=O)NC(=O)NC2=O)[C@H]2[C@H](C)O[C@H](C)CN32)n1` (single isomer, unassigned) [Example 1], the “antibacterial activity (in words)” value [1] was “antibacterial activity”, the MIC [1] was 1 µg/mL (≈ 2.33 µM) and the concentration at 0.5 h [2] was 13500 ng/mL. For the same compound, the concentration at 1 h [2] was 13300 ng/mL, the concentration at 2 h [2] was 21500 ng/mL and the concentration at 4 h [2] was 24500 ng/mL. The concentration at 8 h [2] was 7450 ng/mL, the concentration at 24 h [2] was 176 ng/mL and the “oral exposure (in words)” value [2] was “demonstrated oral exposure”. For the same compound, the “Log10 geometric mean recoverable cfu” value ([4]; single oral dose 12.5 mg/kg) was 6.17, the “Mean log10 cfu reduction vs. infected controls” value ([4]; single oral dose 12.5 mg/kg) was 0.53 and the “Log10 geometric mean recoverable cfu” value ([4]; single oral dose 25 mg/kg) was 5.45. For the same compound, the “Mean log10 cfu reduction vs. infected controls” value ([4]; single oral dose 25 mg/kg) was 1.25, the “Log10 geometric mean recoverable cfu” value ([4]; single oral dose 50 mg/kg) was 4.60 and the “Mean log10 cfu reduction vs. infected controls” value ([4]; single oral dose 50 mg/kg) was 2.10. The “Log10 geometric mean recoverable cfu” value ([4]; single oral dose 100 mg/kg) was 3.49, the “Mean log10 cfu reduction vs. infected controls” value ([4]; single oral dose 100 mg/kg) was 3.21 and the “Log10 geometric mean recoverable cfu” value ([4]; single oral dose 200 mg/kg) was 2.85. For the same compound, the “Mean log10 cfu reduction vs. infected controls” value ([4]; single oral dose 200 mg/kg) was 3.85 and the “Target fAUC” value [3] was 2000 ng·h/mL.
For `Cc1cc(-c2cc3c(c(F)c2F)N2C[C@@H](C)O[C@@H](C)[C@@H]2C2(C3)C(=O)NC(=O)NC2=O)on1` (single isomer, unassigned) [Example 2], the “Log10 geometric mean recoverable cfu” value ([4]; single oral dose 12.5 mg/kg) was 6.23, the “Mean log10 cfu reduction vs. infected controls” value ([4]; single oral dose 12.5 mg/kg) was 0.47 and the “Log10 geometric mean recoverable cfu” value ([4]; single oral dose 25 mg/kg) was 5.76. The “Mean log10 cfu reduction vs. infected controls” value ([4]; single oral dose 25 mg/kg) was 0.94, the “Log10 geometric mean recoverable cfu” value ([4]; single oral dose 50 mg/kg) was 5.07 and the “Mean log10 cfu reduction vs. infected controls” value ([4]; single oral dose 50 mg/kg) was 1.63. The “Log10 geometric mean recoverable cfu” value ([4]; single oral dose 100 mg/kg) was 2.11, the “Mean log10 cfu reduction vs. infected controls” value ([4]; single oral dose 100 mg/kg) was 4.59 and the “Log10 geometric mean recoverable cfu” value ([4]; single oral dose 200 mg/kg) was 1.92. For the same compound, the “Mean log10 cfu reduction vs. infected controls” value ([4]; single oral dose 200 mg/kg) was 4.78.
For `Cc1ncc(-c2cc3c(cc2F)N2C[C@@H](C)O[C@@H](C)[C@@H]2C2(C3)C(=O)NC(=O)NC2=O)cn1` [Comparator Compound from the Literature, reference compound], the MIC [1] was 2 µg/mL (≈ 4.55 µM), the concentration at 0.5 h [2] was 11100 ng/mL and the concentration at 1 h [2] was 17100 ng/mL. For the same compound, the concentration at 2 h [2] was 16000 ng/mL, the concentration at 4 h [2] was 8530 ng/mL and the concentration at 8 h [2] was 3700 ng/mL. For the same compound, the concentration at 24 h [2] was 1400 ng/mL, the “Log10 geometric mean recoverable cfu” value ([4]; single oral dose 12.5 mg/kg) was 6.48 and the “Mean log10 cfu reduction vs. infected controls” value ([4]; single oral dose 12.5 mg/kg) was −0.11. For the same compound, the “Log10 geometric mean recoverable cfu” value ([4]; single oral dose 25 mg/kg) was 6.52, the “Mean log10 cfu reduction vs. infected controls” value ([4]; single oral dose 25 mg/kg) was −0.07 and the “Log10 geometric mean recoverable cfu” value ([4]; single oral dose 50 mg/kg) was 6.48. For the same compound, the “Mean log10 cfu reduction vs. infected controls” value ([4]; single oral dose 50 mg/kg) was −0.11, the “Log10 geometric mean recoverable cfu” value ([4]; single oral dose 100 mg/kg) was 4.62 and the “Mean log10 cfu reduction vs. infected controls” value ([4]; single oral dose 100 mg/kg) was −1.97. For the same compound, the “Log10 geometric mean recoverable cfu” value ([4]; single oral dose 200 mg/kg) was 4.32 and the “Mean log10 cfu reduction vs. infected controls” value ([4]; single oral dose 200 mg/kg) was −2.27.
